Test results as given in ChEMBL document CHEMBL4828722, “The synthesis and bioactivity of pyrrolo[2,3-d]pyrimidine derivatives as tyrosine kinase inhibitors for NSCLC cells with EGFR mutations” (Eur J Med Chem, 2021).
Active and inactive are the calls of the source. The rule behind the calls is not given here.

Tested on: HCC827
Experiment: Induction of cell cycle arrest in human HCC827 cells harboring EGFR del E746-A750 mutant assessed as accumulation of cells in S phase at 5 uM measured after 18 hrs by PI/RNaseA staining based flow cytometry analysis (Rvb= 33.62%)
Type: functional
Settings: not given

Row | Compound | Activity [%]
1 | C=CC(=O)Nc1cccc(Oc2nc(Nc3ccc(N4CCN(C)CC4)c(N)c3)nc3[nH]ccc23)c1 | 13.93

Tested on: NCI-H1975
Experiment: Induction of cell cycle arrest in human NCI-H1975 cells harboring EGFR L858R/T790M mutant assessed as accumulation of cells in S phase at 0.5 uM measured after 18 hrs by PI/RNaseA staining based flow cytometry analysis (Rvb= 39.78%)
Type: functional
Settings: not given

Row | Compound | Activity [%]
2 | C=CC(=O)Nc1cccc(Oc2nc(Nc3ccc(N4CCN(C)CC4)c(N)c3)nc3[nH]ccc23)c1 | 19.32

Tested on: A549
Experiment: Induction of cell cycle arrest in human A549 cells harboring wild type EGFR assessed as accumulation of cells in S phase at 0.5 uM measured after 18 hrs by PI/RNaseA staining based flow cytometry analysis (Rvb= 33.26%)
Type: functional
Settings: not given

Row | Compound | Activity [%]
3 | C=CC(=O)Nc1cccc(Oc2nc(Nc3ccc(N4CCN(C)CC4)c(N)c3)nc3[nH]ccc23)c1 | 29.06

Tested on: HBE
Experiment: Inhibition of AKT/S6 phosphorylation […] in human HBE cells at 5 uM incubated for 2 hrs by immunoblotting analysis
Type: cell-based
Settings: not given

Row | Compound | inhibition
4 | C=CC(=O)Nc1cccc(Oc2nc(Nc3ccc(N4CCN(C)CC4)c(N)c3)nc3[nH]ccc23)c1 | inactive

Tested on: NCI-H1975
Experiment: Induction of cell cycle arrest in human NCI-H1975 cells harboring EGFR L858R/T790M mutant assessed as accumulation of cells in S phase at 1 uM measured after 18 hrs by PI/RNaseA staining based flow cytometry analysis (Rvb= 39.78%)
Type: functional
Settings: not given

Row | Compound | Activity [%]
5 | C=CC(=O)Nc1cccc(Oc2nc(Nc3ccc(N4CCN(C)CC4)c(N)c3)nc3[nH]ccc23)c1 | 19.24

Tested on: A549
Experiment: Induction of cell cycle arrest in human A549 cells harboring wild type EGFR assessed as accumulation of cells in S phase at 1 uM measured after 18 hrs by PI/RNaseA staining based flow cytometry analysis (Rvb= 33.26%)
Type: functional
Settings: not given

Row | Compound | Activity [%]
6 | C=CC(=O)Nc1cccc(Oc2nc(Nc3ccc(N4CCN(C)CC4)c(N)c3)nc3[nH]ccc23)c1 | 26.07

Tested on: HCC827
Experiment: Induction of cell cycle arrest in human HCC827 cells harboring EGFR del E746-A750 mutant assessed as accumulation of cells in S phase at 1 uM measured after 18 hrs by PI/RNaseA staining based flow cytometry analysis (Rvb= 33.62%)
Type: functional
Settings: not given

Row | Compound | Activity [%]
7 | C=CC(=O)Nc1cccc(Oc2nc(Nc3ccc(N4CCN(C)CC4)c(N)c3)nc3[nH]ccc23)c1 | 20.39

Target: MAP kinase p38 (Homo sapiens) (UniProt O15264+Q15759+Q16539+P53778)
Experiment: Inhibition of p38 MAPK phosphorylation at Thr180/Tyr182 residue in human HBE cells at 5 uM incubated for 2 hrs by immunoblotting analysis
Type: cell-based
Settings: not given

Row | Compound | inhibition
8 | C=CC(=O)Nc1cccc(Oc2nc(Nc3ccc(N4CCN(C)CC4)c(N)c3)nc3[nH]ccc23)c1 | Active

Tested on: NCI-H1975
Experiment: Induction of cell cycle arrest in human NCI-H1975 cells harboring EGFR L858R/T790M mutant assessed as accumulation of cells in G2/M phase at 1 uM measured after 18 hrs by PI/RNaseA staining based flow cytometry analysis (Rvb= 17.33%)
Type: functional
Settings: not given

Row | Compound | Activity [%]
9 | C=CC(=O)Nc1cccc(Oc2nc(Nc3ccc(N4CCN(C)CC4)c(N)c3)nc3[nH]ccc23)c1 | 11.6

Target: Ribosomal protein S6 kinase beta-1 (Homo sapiens) (UniProt P23443)
Sequence (P23443 whole entry, looked up): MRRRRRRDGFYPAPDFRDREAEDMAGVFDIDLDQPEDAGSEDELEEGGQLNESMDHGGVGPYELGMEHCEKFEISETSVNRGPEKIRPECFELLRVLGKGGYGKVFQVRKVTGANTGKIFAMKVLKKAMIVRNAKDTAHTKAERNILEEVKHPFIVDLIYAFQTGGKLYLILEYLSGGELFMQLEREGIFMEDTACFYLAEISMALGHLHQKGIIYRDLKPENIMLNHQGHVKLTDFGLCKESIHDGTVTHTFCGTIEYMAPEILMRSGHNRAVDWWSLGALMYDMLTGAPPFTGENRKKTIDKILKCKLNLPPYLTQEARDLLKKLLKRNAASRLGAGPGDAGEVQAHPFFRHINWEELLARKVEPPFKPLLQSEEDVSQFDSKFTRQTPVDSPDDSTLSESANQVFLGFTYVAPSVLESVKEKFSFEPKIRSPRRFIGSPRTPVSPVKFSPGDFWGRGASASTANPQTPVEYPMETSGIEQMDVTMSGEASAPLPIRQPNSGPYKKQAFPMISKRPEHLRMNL
Experiment: Inhibition of P70S6K phosphorylation in human NCI-H1975 cells at 0.1 to 5 uM incubated for 2 hrs by immunoblotting analysis
Type: cell-based
Settings: dose 0.1-5 µM

Row | Compound | inhibition
10 | C=CC(=O)Nc1cccc(Oc2nc(Nc3ccc(N4CCN(C)CC4)c(N)c3)nc3[nH]ccc23)c1 | Active

Tested on: HCC827
Experiment: Induction of apoptosis in human HCC827 cells harboring EGFR del E746-A750 mutant assessed as total apoptotic cells at 5 uM measured after 18 hrs by Annexin V-FITC/PI staining based flow cytometry analysis (Rvb= 10.8%)
Type: functional
Settings: not given

Row | Compound | Activity [%]
11 | C=CC(=O)Nc1cccc(Oc2nc(Nc3ccc(N4CCN(C)CC4)c(N)c3)nc3[nH]ccc23)c1 | 28.7

Tested on: NCI-H1975
Experiment: Induction of cell cycle arrest in human NCI-H1975 cells harboring EGFR L858R/T790M mutant assessed as accumulation of cells in G2/M phase at 0.5 uM measured after 18 hrs by PI/RNaseA staining based flow cytometry analysis (Rvb= 17.33%)
Type: functional
Settings: not given

Row | Compound | Activity [%]
12 | C=CC(=O)Nc1cccc(Oc2nc(Nc3ccc(N4CCN(C)CC4)c(N)c3)nc3[nH]ccc23)c1 | 16.64

Tested on: NCI-H1975
Experiment: Induction of apoptosis in human NCI-H1975 cells harboring EGFR L858R/T790M mutant assessed as live cells at 5 uM measured after 18 hrs by Annexin V-FITC/PI staining based flow cytometry analysis (Rvb= 89.4%)
Type: functional
Settings: not given

Row | Compound | Activity [%]
13 | C=CC(=O)Nc1cccc(Oc2nc(Nc3ccc(N4CCN(C)CC4)c(N)c3)nc3[nH]ccc23)c1 | 81.9

Tested on: A549
Experiment: Induction of cell cycle arrest in human A549 cells harboring wild type EGFR assessed as accumulation of cells in G2/M phase at 0.5 uM measured after 18 hrs by PI/RNaseA staining based flow cytometry analysis (Rvb= 8.47%)
Type: functional
Settings: not given

Row | Compound | Activity [%]
14 | C=CC(=O)Nc1cccc(Oc2nc(Nc3ccc(N4CCN(C)CC4)c(N)c3)nc3[nH]ccc23)c1 | 10.49

Tested on: HCC827
Experiment: Induction of cell cycle arrest in human HCC827 cells harboring EGFR del E746-A750 mutant assessed as accumulation of cells in G2/M phase at 1 uM measured after 18 hrs by PI/RNaseA staining based flow cytometry analysis (Rvb= 16.78%)
Type: functional
Settings: not given

Row | Compound | Activity [%]
15 | C=CC(=O)Nc1cccc(Oc2nc(Nc3ccc(N4CCN(C)CC4)c(N)c3)nc3[nH]ccc23)c1 | 7.18

Tested on: BEAS-2B
Experiment: Cytotoxicity against human BEAS-2B cells assessed as reduction in cell viability measured after 48 hrs by CCK8 assay
Type: cell-based
Settings: not given

Row | Compound | IC50 [µM]
16 | C=CC(=O)Nc1cccc(Oc2nc(Nc3ccc(N4CCN(C)CC4)c(N)c3)nc3[nH]ccc23)c1 | 7.8

Tested on: NCI-H1975
Experiment: Induction of apoptosis in human NCI-H1975 cells harboring EGFR L858R/T790M mutant assessed as early apoptotic cells at 5 uM measured after 18 hrs by Annexin V-FITC/PI staining based flow cytometry analysis (Rvb= […])
Type: functional
Settings: not given

Row | Compound | Activity [%]
17 | C=CC(=O)Nc1cccc(Oc2nc(Nc3ccc(N4CCN(C)CC4)c(N)c3)nc3[nH]ccc23)c1 | 15.9

Tested on: NCI-H1975
Experiment: Induction of apoptosis in human NCI-H1975 cells harboring EGFR L858R/T790M mutant assessed as dead cells at 0.5 uM measured after 18 hrs by Annexin V-FITC/PI staining based flow cytometry analysis (Rvb= […])
Type: functional
Settings: not given

Row | Compound | Activity [%]
18 | C=CC(=O)Nc1cccc(Oc2nc(Nc3ccc(N4CCN(C)CC4)c(N)c3)nc3[nH]ccc23)c1 | 2.5

Tested on: HCC827
Experiment: Induction of apoptosis in human HCC827 cells harboring EGFR del E746-A750 mutant assessed as late apoptotic cells at 0.5 uM measured after 18 hrs by Annexin V-FITC/PI staining based flow cytometry analysis (Rvb= 1.2%)
Type: functional
Settings: not given

Row | Compound | Activity [%]
19 | C=CC(=O)Nc1cccc(Oc2nc(Nc3ccc(N4CCN(C)CC4)c(N)c3)nc3[nH]ccc23)c1 | 12.5

Target: Ribosomal protein S6 kinase beta-1 (Homo sapiens) (UniProt P23443)
Experiment: Inhibition of P70S6K phosphorylation in human HCC827 cells at 0.1 to 5 uM incubated for 2 hrs by immunoblotting analysis
Type: cell-based
Settings: dose 0.1-5 µM

Row | Compound | inhibition
20 | C=CC(=O)Nc1cccc(Oc2nc(Nc3ccc(N4CCN(C)CC4)c(N)c3)nc3[nH]ccc23)c1 | Active

Tested on: A549
Experiment: Induction of cell cycle arrest in human A549 cells harboring wild type EGFR assessed as accumulation of cells in G2/M phase at 5 uM measured after 18 hrs by PI/RNaseA staining based flow cytometry analysis (Rvb= 8.47%)
Type: functional
Settings: not given

Row | Compound | Activity [%]
21 | C=CC(=O)Nc1cccc(Oc2nc(Nc3ccc(N4CCN(C)CC4)c(N)c3)nc3[nH]ccc23)c1 | 8.09

Tested on: A549
Experiment: Cytotoxicity against human A549 cells harboring wild type EGFR assessed as reduction in cell viability measured after 48 hrs by CCK8 assay
Type: functional, cell-based
Settings: A549, 48 h

Row | Compound | IC50 [µM]
22 | C=CC(=O)Nc1cccc(Oc2nc(Nc3ccc(N4CCN(C)CC4)c(N)c3)nc3[nH]ccc23)c1 | 6.07

Tested on: HCC827
Experiment: Induction of apoptosis in human HCC827 cells harboring EGFR del E746-A750 mutant assessed as live cells at 0.5 uM measured after 18 hrs by Annexin V-FITC/PI staining based flow cytometry analysis (Rvb= 87.5%)
Type: functional
Settings: not given

Row | Compound | Activity [%]
23 | C=CC(=O)Nc1cccc(Oc2nc(Nc3ccc(N4CCN(C)CC4)c(N)c3)nc3[nH]ccc23)c1 | 69.1

Tested on: NCI-H1975
Experiment: Induction of apoptosis in human NCI-H1975 cells harboring EGFR L858R/T790M mutant assessed as early apoptotic cells at 0.5 uM measured after 18 hrs by Annexin V-FITC/PI staining based flow cytometry analysis (Rvb= […])
Type: functional
Settings: not given

Row | Compound | Activity [%]
24 | C=CC(=O)Nc1cccc(Oc2nc(Nc3ccc(N4CCN(C)CC4)c(N)c3)nc3[nH]ccc23)c1 | 16.1

Tested on: HCC827
Experiment: Induction of cell cycle arrest in human HCC827 cells harboring EGFR del E746-A750 mutant assessed as accumulation of cells in G0/G1 phase at 5 uM measured after 18 hrs by PI/RNaseA staining based flow cytometry analysis (Rvb= 49.60%)
Type: functional
Settings: not given

Row | Compound | Activity [%]
25 | C=CC(=O)Nc1cccc(Oc2nc(Nc3ccc(N4CCN(C)CC4)c(N)c3)nc3[nH]ccc23)c1 | 78.12

Tested on: HCC827
Experiment: Induction of cell cycle arrest in human HCC827 cells harboring EGFR del E746-A750 mutant assessed as accumulation of cells in G2/M phase at 0.5 uM measured after 18 hrs by PI/RNaseA staining based flow cytometry analysis (Rvb= 16.78%)
Type: functional
Settings: not given

Row | Compound | Activity [%]
26 | C=CC(=O)Nc1cccc(Oc2nc(Nc3ccc(N4CCN(C)CC4)c(N)c3)nc3[nH]ccc23)c1 | 10.04

Tested on: HCC827
Experiment: Inhibition of AKT phosphorylation in human HCC827 cells at 0.1 to 5 uM incubated for 2 hrs by immunoblotting analysis
Type: cell-based
Settings: dose 0.1-5 µM

Row | Compound | inhibition
27 | C=CC(=O)Nc1cccc(Oc2nc(Nc3ccc(N4CCN(C)CC4)c(N)c3)nc3[nH]ccc23)c1 | Active

Tested on: HCC827
Experiment: Induction of apoptosis in human HCC827 cells harboring EGFR del E746-A750 mutant assessed as dead cells at 5 uM measured after 18 hrs by Annexin V-FITC/PI staining based flow cytometry analysis (Rvb= […])
Type: functional
Settings: not given

Row | Compound | Activity [%]
28 | C=CC(=O)Nc1cccc(Oc2nc(Nc3ccc(N4CCN(C)CC4)c(N)c3)nc3[nH]ccc23)c1 | 2.1
